{"source": "PubChem BioAssay AID1259409", "about": "(Chemical Carcinogenesis Research Information System (CCRIS), 2018)", "origin": "cited, not measured here", "tested_on": "rodent chemically induced tumor inhibition, incidence and multiplicity", "assay": "CCRIS tumor inhibitor studies", "data": [{"compound": "N#Cc1ccc(C(c2ccc(C#N)cc2)n2cncn2)cc1", "values": [{"measurement": "tumour outcome (control, treated, inhibition, significance)", "setting": "Carcinogen: NONE, Dose [Inhibitor]: 0, 0.1 MG/KG BW/D FOR 104 WK (STUDY DURATION: 104 WK), Route [Inhibitor]: NOT SPECIFIED, Species: RAT, Strain/Sex: SPRAGUE-DAWLEY/FEMALE, Target Tissue: Type of Lesion: REPRODUCTIVE TRACT (DISTAL): BENIGN GRANULAR CELL TUMOR, Promoter: NONE", "result": "7/60 (12%), 0/60 (0%), 100%, not calculated"}, {"measurement": "tumour outcome (control, treated, inhibition, significance)", "setting": "Carcinogen: NONE, Dose [Inhibitor]: 0, 1 MG/KG BW/D FOR 104 WK (STUDY DURATION: 104 WK), Route [Inhibitor]: NOT SPECIFIED, Species: RAT, Strain/Sex: SPRAGUE-DAWLEY/FEMALE, Target Tissue: Type of Lesion: REPRODUCTIVE TRACT (DISTAL): BENIGN GRANULAR CELL TUMOR, Promoter: NONE", "result": "7/60 (12%), 0/60 (0%), 100%, not calculated"}, {"measurement": "tumour outcome (control, treated, inhibition, significance)", "setting": "Carcinogen: NONE, Dose [Inhibitor]: 0, 10 MG/KG BW/D FOR 104 WK (STUDY DURATION: 104 WK), Route [Inhibitor]: NOT SPECIFIED, Species: RAT, Strain/Sex: SPRAGUE-DAWLEY/FEMALE, Target Tissue: Type of Lesion: REPRODUCTIVE TRACT (DISTAL): BENIGN GRANULAR CELL TUMOR, Promoter: NONE", "result": "7/60 (12%), 0/60 (0%), 100%, not calculated"}]}, {"compound": "CC(=O)[C@H]1CC[C@H]2[C@@H]3CCC4=CC(=O)CC[C@]4(C)[C@H]3CC[C@]12C", "values": [{"measurement": "tumour outcome (control, treated, inhibition, significance)", "setting": "Carcinogen: 7,12-DIMETHYLBENZ[A]ANTHRACENE, 57-97-6, Dose [Inhibitor]: 0, 1 MG/100 G BW 3/WK FOR 150 D BEGINNING POST CARCINOGEN TREATMENT (STUDY DURATION: 150 D), Route [Inhibitor]: SUBCUTANEOUS, Species: RAT, Strain/Sex: WISTAR/FEMALE, Target Tissue: Type of Lesion: MAMMARY GLAND: ADENOCARCINOMA, Dose [Carcinogen]: 4 MG IN 0.1 ML OF SESAME OIL INJECTED ONCE INTO THE EXPOSED MAMMARY TISSUE OF HYPERPROLACTINEMIC RATS ON DAY 73 OF AGE, Promoter: NONE USED", "result": "8/11 (73%), 5/11 (45%), 38%, p<0.05"}, {"measurement": "tumour outcome (control, treated, inhibition, significance)", "setting": "Carcinogen: N-METHYL-N-NITROSOUREA, 684-93-5, Dose [Inhibitor]: 0, 2560 MG/KG IN DIET FOR THE DURATION OF STUDY BEGINNING 7 D PRIOR TO CARCINOGEN DOSE (STUDY DURATION: 187 D), Route [Inhibitor]: ORAL, Species: RAT, Strain/Sex: SPRAGUE-DAWLEY/FEMALE, Target Tissue: Type of Lesion: MAMMARY GLAND: TUMOR, Dose [Carcinogen]: 50 MG/KG BW ONCE, Promoter: NONE USED", "result": "100%, 95%, 5%, not significant"}]}, {"compound": "CC1=C(/C=C/C(C)=C/C=C/C(C)=C/C(=O)NCCCO)C(C)(C)CCC1", "values": [{"measurement": "tumour outcome (control, treated, inhibition, significance)", "setting": "Carcinogen: N-BUTYL-N-(4-HYDROXYBUTYL)NITROSAMINE, 3817-11-6, Dose [Inhibitor]: 1.5 MMOL/KG/D IN DIET FOR 108 D STARTING 1 WK POST CARCINOGEN TREATMENT (STUDY DURATION: 171 D), Route [Inhibitor]: ORAL, Species: MOUSE, Strain/Sex: BDF/MALE, Target Tissue: Type of Lesion: URINARY BLADDER: TRANSITIONAL CELL CARCINOMA, Dose [Carcinogen]: 5 MG 2/WK FOR 9 WK, Promoter: NONE USED", "result": "31/55 (56%), 28/54 (51%), 9%, not significant"}, {"measurement": "tumour outcome (control, treated, inhibition, significance)", "setting": "Carcinogen: N-NITROSOBIS(2-OXOPROPYL)AMINE, 60599-38-4, Dose [Inhibitor]: 0.25 MMOL/KG OF DIET FOR 357 D STARTING 2 WK AFTER LAST CARCINOGEN DOSE AND INTERRUPTED BY A 1 WK REST PERIOD OF VEHICLE, Route [Inhibitor]: ORAL, Species: HAMSTER, Strain/Sex: SYRIAN/FEMALE, Target Tissue: Type of Lesion: LIVER: HEPATOCELLULAR CARCINOMA, Dose [Carcinogen]: 20 MG/KG INJECTION GIVEN TWICE 1 WK APART, Promoter: NONE USED", "result": "5%, 42%, -740%, not calculated"}, {"measurement": "tumour outcome (control, treated, inhibition, significance)", "setting": "Carcinogen: N-NITROSOBIS(2-OXOPROPYL)AMINE, 60599-38-4, Dose [Inhibitor]: 0.25 MMOL/KG OF DIET FOR 357 D STARTING 2 WK AFTER LAST CARCINOGEN DOSE AND INTERRUPTED BY A 1 WK REST PERIOD OF VEHICLE, Route [Inhibitor]: ORAL, Species: HAMSTER, Strain/Sex: SYRIAN/FEMALE, Target Tissue: Type of Lesion: PANCREAS: CARCINOMA, Dose [Carcinogen]: 20 MG/KG INJECTION GIVEN TWICE 1 WK APART, Promoter: NONE USED", "result": "38%, 32%, 16%, not calculated"}, {"measurement": "tumour outcome (control, treated, inhibition, significance)", "setting": "Carcinogen: N-NITROSOBIS(2-OXOPROPYL)AMINE, 60599-38-4, Dose [Inhibitor]: 0.25 MMOL/KG OF DIET FOR 357 D STARTING 2 WK AFTER LAST CARCINOGEN DOSE AND INTERRUPTED BY A 1 WK REST PERIOD OF VEHICLE, Route [Inhibitor]: ORAL, Species: HAMSTER, Strain/Sex: SYRIAN/MALE, Target Tissue: Type of Lesion: LIVER: HEPATOCELLULAR CARCINOMA, Dose [Carcinogen]: 20 MG/KG INJECTION GIVEN TWICE 1 WK APART, Promoter: NONE USED", "result": "7%, 0%, 100%, not calculated"}, {"measurement": "tumour outcome (control, treated, inhibition, significance)", "setting": "Carcinogen: N-NITROSOBIS(2-OXOPROPYL)AMINE, 60599-38-4, Dose [Inhibitor]: 0.25 MMOL/KG OF DIET FOR 357 D STARTING 2 WK AFTER LAST CARCINOGEN DOSE AND INTERRUPTED BY A 1 WK REST PERIOD OF VEHICLE, Route [Inhibitor]: ORAL, Species: HAMSTER, Strain/Sex: SYRIAN/MALE, Target Tissue: Type of Lesion: PANCREAS: CARCINOMA, Dose [Carcinogen]: 20 MG/KG INJECTION GIVEN TWICE 1 WK APART, Promoter: NONE USED", "result": "34%, 27%, 21%, not calculated"}, {"measurement": "tumour outcome (control, treated, inhibition, significance)", "setting": "Carcinogen: N-NITROSOBIS(2-OXOPROPYL)AMINE, 60599-38-4, Dose [Inhibitor]: 0.5 MMOL/KG OF DIET FOR 357 D STARTING 2 WK AFTER LAST CARCINOGEN DOSE AND INTERRUPTED BY A 1 WK REST PERIOD OF VEHICLE-, Route [Inhibitor]: ORAL, Species: HAMSTER, Strain/Sex: SYRIAN/FEMALE, Target Tissue: Type of Lesion: LIVER: HEPATOCELLULAR CARCINOMA, Dose [Carcinogen]: 20 MG/KG INJECTION GIVEN TWICE 1 WK APART, Promoter: NONE USED", "result": "5%, 9%, -80%, not calculated"}, {"measurement": "tumour outcome (control, treated, inhibition, significance)", "setting": "Carcinogen: N-NITROSOBIS(2-OXOPROPYL)AMINE, 60599-38-4, Dose [Inhibitor]: 0.5 MMOL/KG OF DIET FOR 357 D STARTING 2 WK AFTER LAST CARCINOGEN DOSE AND INTERRUPTED BY A 1 WK REST PERIOD OF VEHICLE-, Route [Inhibitor]: ORAL, Species: HAMSTER, Strain/Sex: SYRIAN/FEMALE, Target Tissue: Type of Lesion: PANCREAS: CARCINOMA, Dose [Carcinogen]: 20 MG/KG INJECTION GIVEN TWICE 1 WK APART, Promoter: NONE USED", "result": "38%, 27%, 29%, not calculated"}, {"measurement": "tumour outcome (control, treated, inhibition, significance)", "setting": "Carcinogen: N-NITROSOBIS(2-OXOPROPYL)AMINE, 60599-38-4, Dose [Inhibitor]: 0.5 MMOL/KG OF DIET FOR 357 D STARTING 2 WK AFTER LAST CARCINOGEN DOSE AND INTERRUPTED BY A 1 WK REST PERIOD OF VEHICLE-, Route [Inhibitor]: ORAL, Species: HAMSTER, Strain/Sex: SYRIAN/MALE, Target Tissue: Type of Lesion: LIVER: HEPATOCELLULAR CARCINOMA, Dose [Carcinogen]: 20 MG/KG INJECTION GIVEN TWICE 1 WK APART, Promoter: NONE USED", "result": "7%, 12%, -71%, not calculated"}, {"measurement": "tumour outcome (control, treated, inhibition, significance)", "setting": "Carcinogen: N-NITROSOBIS(2-OXOPROPYL)AMINE, 60599-38-4, Dose [Inhibitor]: 0.5 MMOL/KG OF DIET FOR 357 D STARTING 2 WK AFTER LAST CARCINOGEN DOSE AND INTERRUPTED BY A 1 WK REST PERIOD OF VEHICLE-, Route [Inhibitor]: ORAL, Species: HAMSTER, Strain/Sex: SYRIAN/MALE, Target Tissue: Type of Lesion: PANCREAS: CARCINOMA, Dose [Carcinogen]: 20 MG/KG INJECTION GIVEN TWICE 1 WK APART, Promoter: NONE USED", "result": "34%, 40%, -18%, not calculated"}]}, {"compound": "CC[C@@H](C)[C@H](NC(=O)CN)C(=O)N[C@H](C(=O)N[C@@H](CCC(=O)O)C(=O)N[C@@H](CCC(N)=O)C(=O)N[C@H]1CSSC[C@H]2NC(=O)[C@H]([C@H](C)CC)NC(=O)[C@H](CO)NC(=O)[C@H]([C@H](C)O)NC(=O)[C@H](CSSC[C@H](NC(=O)[C@H](CC(C)C)NC(=O)[C@H](Cc3c[nH]cn3)NC(=O)[C@H](CCC(N)=O)NC(=O)[C@@H](NC(=O)[C@@H](NC(=O)[C@@H](N)Cc3ccccc3)C(C)C)C(N)=O)C(=O)NCC(=O)N[C@@H](CO)C(=O)N[C@@H](Cc3c[nH]cn3)C(=O)N[C@@H](CC(C)C)C(=O)N[C@@H](C(C)C)C(=O)N[C@@H](CCC(=O)O)C(=O)N[C@@H](C)C(=O)N[C@@H](CC(C)C)C(=O)N[C@@H](Cc3ccc(O)cc3)C(=O)N[C@@H](CC(C)C)C(=O)N[C@@H](C(C)C)C(=O)N[C@H](C(=O)NCC(=O)N[C@@H](CCC(=O)O)C(=O)N[C@@H](CCCNC(=N)N)C(=O)NCC(=O)N[C@@H](Cc3ccccc3)C(=O)N[C@@H](Cc3ccccc3)C(=O)N[C@@H](Cc3ccc(O)cc3)C(=O)N[C@H](C(=O)N3CCC[C@H]3C(=O)N[C@@H](CCCCN)C(=O)N[C@H](C(=O)O)[C@H](C)O)[C@H](C)O)CSSC[C@@H](C(=O)N[C@@H](CC(N)=O)C(=O)O)NC(=O)[C@H](Cc3ccc(O)cc3)NC(=O)[C@H](CC(N)=O)NC(=O)[C@H](CCC(=O)O)NC(=O)[C@H](CC(C)C)NC(=O)[C@H](CCC(N)=O)NC(=O)[C@H](Cc3ccc(O)cc3)NC(=O)[C@H](CC(C)C)NC(=O)[C@H](CO)NC2=O)NC1=O)C(C)C", "values": [{"measurement": "tumour outcome (control, treated, inhibition, significance)", "setting": "Carcinogen: 7,12-DIMETHYLBENZ[A]ANTHRACENE, 57-97-6, Dose [Inhibitor]: 0, 10 I.U. FOR 7 D BEGINNING 3 D PRIOR TO CARCINOGEN DOSE (STUDY DURATION: 6 MO), Route [Inhibitor]: SUBCUTANEOUS, Species: RAT, Strain/Sex: SWISS/FEMALE, Target Tissue: Type of Lesion: MAMMARY GLAND: TUMOR, Dose [Carcinogen]: 20 MG IN 4 ML OLIVE OIL ONCE, Promoter: NONE USED", "result": "22/33 (67%), 6/32 (19%), 72%, not calculated"}]}]}
